Measurements: patent US20260308145A1, “CDK2 INHIBITORS AND METHODS OF USING SAME” (Shenzhen lonova Life Science Co., Ltd., priority 2023, published 2026)

How the values were obtained:
Type in all cases: biochemical
CDK1/cyclinB1 = biological target: T1, CDK1/cyclinB1 (Homo sapiens, UniProt P06493); test: Cyclin-dependent kinase activity assay (continuous ATP coupling assay), CDK1/cyclinB1; details: CDK1/cyclinB1 10 nM, ATP 200 μM, Histone1 copeptide 100 μM, 15 min preincubation, pH 7.5, 1% DMSO
T1 construct: purchased Carna Biosciences 04-102
T1 sequence (P06493 whole entry): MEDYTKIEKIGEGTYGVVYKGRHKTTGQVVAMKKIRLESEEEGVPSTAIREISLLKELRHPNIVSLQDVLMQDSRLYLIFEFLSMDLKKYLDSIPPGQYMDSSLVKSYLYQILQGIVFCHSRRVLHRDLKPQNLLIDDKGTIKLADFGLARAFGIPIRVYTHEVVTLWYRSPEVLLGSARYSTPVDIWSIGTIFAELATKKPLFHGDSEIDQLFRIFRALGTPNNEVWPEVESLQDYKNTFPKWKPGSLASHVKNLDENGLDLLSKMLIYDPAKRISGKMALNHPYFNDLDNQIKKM
T1 sequence (P14635 whole entry partner): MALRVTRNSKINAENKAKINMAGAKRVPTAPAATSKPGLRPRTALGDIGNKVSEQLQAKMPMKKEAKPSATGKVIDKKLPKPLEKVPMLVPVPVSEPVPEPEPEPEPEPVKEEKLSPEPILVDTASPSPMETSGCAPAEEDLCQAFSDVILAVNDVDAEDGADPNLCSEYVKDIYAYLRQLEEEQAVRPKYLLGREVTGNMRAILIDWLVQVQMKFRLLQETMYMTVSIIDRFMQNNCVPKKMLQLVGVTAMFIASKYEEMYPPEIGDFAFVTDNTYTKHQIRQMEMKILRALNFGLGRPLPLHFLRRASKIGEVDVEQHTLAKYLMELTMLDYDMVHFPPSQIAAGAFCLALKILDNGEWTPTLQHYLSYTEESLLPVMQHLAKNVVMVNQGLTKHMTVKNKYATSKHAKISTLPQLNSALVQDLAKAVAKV
Description: (§1) Cyclin-dependent kinase activity assay was measured by continuous ATP coupling assay in which ADP generated by kinase catalyzed phosphorylation was converted back to ATP by consuming phosphoenolpyruvate (PEP) and NADH catalyzed by pyruvate kinase/lactate dehydrogenase (PK/LDH). The assay compositions (see, Table 1) consist of one of the kinases, including CDK1/cyclinB1, CDK2/cyclinE1, CDK4/cyclinD3, and CDK6/cyclinD3 at the designated concentration, ATP at the corresponding Km of the kinase, copeptide and the ATP coupling system of PEP, NADH and PK/LDH. The assay was conducted in a reaction buffer of 20 mM Tris (pH 7.5) with 50 mM NaCl, 0.5 mM DTT and 0.04% BSA, and results were monitored continuously by fluorescence decrease of NADH with excitation at 340 nm and emission at 460 nm. Linear regression of the resulting reaction time traces gave reaction velocities.
(§2) For inhibition assay, compounds were first serial diluted in a 1:3 ratio from 10 μM to 0.05 nM using 10× reaction buffer. One of the CDK kinase was then introduced to compounds solution and incubated for 15 min. Finally, the compositions of ATP coupling system were introduced to the resulting solution to initiate the reaction. The final reaction mixture was in 1× reaction assay buffer with 1% DMSO. The half-maximal inhibition concentrations (IC50) for compounds were determined by fitting the plots of reaction velocity against compound concentration with 4-variable IC50 equation. The inhibition constants (Ki) were determined by fitting the same plots with quadratic/Morrison equation. Data were analyzed using commercially available software Graphpad Prism.
(§3) Exemplary results are presented as calculated IC50 values. • A: IC50≤10 nM • B: IC50>10 nM and IC50<100 nM • C: IC50≥100 nM

CDK2/cyclinE1 = biological target: T2, CDK2/cyclinE1 (Homo sapiens, UniProt P24941); test: Cyclin-dependent kinase activity assay (continuous ATP coupling assay), CDK2/cyclinE1; details: CDK2/cyclinE1 5 nM, ATP 300 μM, Rb copeptide 100 μM, 15 min preincubation, pH 7.5, 1% DMSO
T2 construct: purchased Carna Biosciences 04-165
Description: as §1, §2, §3

CDK4/cyclinD3 = biological target: T3, CDK4/cyclinD3 (Homo sapiens, UniProt P11802); test: Cyclin-dependent kinase activity assay (continuous ATP coupling assay), CDK4/cyclinD3; details: CDK4/cyclinD3 60 nM, ATP 500 μM, Rb copeptide 500 μM, 15 min preincubation, pH 7.5, 1% DMSO
T3 construct: purchased Carna Biosciences 04-105
T3 sequence (P11802 whole entry): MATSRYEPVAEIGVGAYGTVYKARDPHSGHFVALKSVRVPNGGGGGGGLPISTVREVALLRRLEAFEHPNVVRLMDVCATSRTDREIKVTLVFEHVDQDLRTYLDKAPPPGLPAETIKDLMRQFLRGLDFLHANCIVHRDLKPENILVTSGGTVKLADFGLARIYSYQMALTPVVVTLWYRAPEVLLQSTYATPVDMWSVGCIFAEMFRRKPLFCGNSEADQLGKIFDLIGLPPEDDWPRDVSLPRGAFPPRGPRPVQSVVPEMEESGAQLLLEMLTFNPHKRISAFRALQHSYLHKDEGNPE
T3 sequence (P30281 whole entry partner): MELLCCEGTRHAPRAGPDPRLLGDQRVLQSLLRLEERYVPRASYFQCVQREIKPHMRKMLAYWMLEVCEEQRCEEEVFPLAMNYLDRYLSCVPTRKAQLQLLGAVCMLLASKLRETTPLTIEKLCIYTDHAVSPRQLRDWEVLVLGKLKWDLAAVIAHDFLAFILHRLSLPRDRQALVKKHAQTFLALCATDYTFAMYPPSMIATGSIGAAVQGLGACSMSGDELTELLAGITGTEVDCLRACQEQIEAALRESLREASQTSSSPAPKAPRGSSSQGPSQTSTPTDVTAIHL
Description: as §1, §2, §3

CDK6/cyclinD3 = biological target: T4, CDK6/cyclinD3 (Homo sapiens, UniProt Q00534); test: Cyclin-dependent kinase activity assay (continuous ATP coupling assay), CDK6/cyclinD3; details: CDK6/cyclinD3 25 nM, ATP 500 μM, Rb copeptide 500 μM, 15 min preincubation, pH 7.5, 1% DMSO
T4 construct: purchased Carna Biosciences 04-107
T4 sequence (Q00534 whole entry): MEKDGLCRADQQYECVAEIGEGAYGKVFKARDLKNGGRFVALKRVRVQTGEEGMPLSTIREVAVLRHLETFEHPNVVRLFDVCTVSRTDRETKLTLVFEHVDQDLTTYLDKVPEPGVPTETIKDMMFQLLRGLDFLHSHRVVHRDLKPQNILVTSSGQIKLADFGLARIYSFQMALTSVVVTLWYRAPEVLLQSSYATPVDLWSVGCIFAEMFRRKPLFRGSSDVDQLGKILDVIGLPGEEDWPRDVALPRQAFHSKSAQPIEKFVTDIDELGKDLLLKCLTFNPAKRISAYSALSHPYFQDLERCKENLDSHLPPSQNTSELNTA
T4 sequence (P30281 whole entry partner): as the sequence (P30281 whole entry partner) above
Description: as §1, §2, §3

Compound | IC50 (CDK1/cyclinB1) | IC50 (CDK2/cyclinE1) | IC50 (CDK4/cyclinD3) | IC50 (CDK6/cyclinD3)
CC(C)(O)Cc1cnn(-c2nc(Nc3ccc(S(N)(=O)=O)cc3)ncc2C(F)(F)F)c1 [Example 71] | 10 to 100 nM | ≤ 10 nM | ≤ 10 nM | 10 to 100 nM
CNS(=O)(=O)c1ccc(Nc2ncc(C(F)(F)F)c(-n3cc([C@@H]4CC[C@@H](O)C4)cn3)n2)cc1 (single isomer, unassigned) [Example 78] | ≥ 100 nM | ≤ 10 nM | 10 to 100 nM | 10 to 100 nM
[2H]C([2H])([2H])NS(=O)(=O)c1ccc(Nc2ncc(C(F)(F)F)c(-n3cc(CC(C)(C)O)cn3)n2)cc1 [Example 58] | 10 to 100 nM | ≤ 10 nM | 10 to 100 nM | 10 to 100 nM
CNS(=O)(=O)c1ccc(Nc2ncc(C(F)(F)F)c(-n3cc(C4COC4)cn3)n2)cc1 [Example 102] | ≥ 100 nM | ≤ 10 nM | 10 to 100 nM | 10 to 100 nM
CNS(=O)(=O)c1ccc(Nc2ncc(C)c(-n3cc(CC(C)(C)O)cn3)n2)cc1 [Example 63] | ≥ 100 nM | 10 to 100 nM | 10 to 100 nM | 10 to 100 nM
CC(O)Cc1cnn(-c2nc(NC3CCN(S(C)(=O)=O)CC3)ncc2C(F)(F)F)c1 (single isomer, unassigned) [Example 107] | 10 to 100 nM | ≤ 10 nM | 10 to 100 nM | 10 to 100 nM
CN1CCN(S(=O)(=O)c2ccc(Nc3ncc(C(F)(F)F)c(-n4cccn4)n3)cc2)CC1 [Example 38] | ≥ 100 nM | 10 to 100 nM | ≥ 100 nM | ≥ 100 nM
CNS(=O)(=O)c1ccc(Nc2ncc(C(F)(F)F)c(-n3cc(CC(C)(C)O)cn3)n2)cc1 [Example 2, 4-((4-(4-(2-hydroxy-2-methylpropyl)-1H-pyrazol-1-yl)-5-(trifluoromethyl)pyrimidin-2-yl)amino)-N-methylbenzenesulfonamide] | 10 to 100 nM | ≤ 10 nM | 10 to 100 nM | 10 to 100 nM
CNS(=O)(=O)c1ccc(Nc2ncc(C)c(-n3cccn3)n2)cc1 [Example 22] | ≥ 100 nM | 10 to 100 nM | ≥ 100 nM | ≥ 100 nM
CNS(=O)(=O)c1ccc(Nc2ncc(F)c(-n3cc(CC(C)(C)O)cn3)n2)cc1 [Example 62] | ≥ 100 nM | 10 to 100 nM | 10 to 100 nM | ≥ 100 nM
CNS(=O)(=O)c1ccc(Nc2ncc(C(F)(F)F)c(-n3cc(C(F)(F)F)cn3)n2)cc1 [Example 47] | 10 to 100 nM | 10 to 100 nM | ≥ 100 nM | ≥ 100 nM
CNS(=O)(=O)c1ccc(Nc2ncc(C(F)(F)F)c(-n3cc(C[C@@H](C)O)cn3)n2)cc1 (single isomer, unassigned) [Example 5] | 10 to 100 nM | ≤ 10 nM | 10 to 100 nM | 10 to 100 nM
O=S(=O)(NCC1(O)CC1)c1ccc(Nc2ncc(C(F)(F)F)c(-n3cccn3)n2)cc1 [Example 131] | ≥ 100 nM | ≤ 10 nM | ≥ 100 nM | ≥ 100 nM
CNS(=O)(=O)c1ccc(Nc2nccc(-n3cccn3)n2)cc1 [Example 23] | ≥ 100 nM | ≥ 100 nM | ≥ 100 nM | ≥ 100 nM
CNS(=O)(=O)c1ccc(Nc2ncc(C(F)(F)F)c(-n3cc(C4CC4(F)F)cn3)n2)cc1 (single isomer, unassigned) [Example 53, 4-[[4-[4-(2,2-difluorocyclopropyl)pyrazol-1-yl]-5-(trifluoromethyl)pyrimidin-2-yl]amino]-N-methyl-benzenesulfonamide] | ≥ 100 nM | 10 to 100 nM | ≥ 100 nM | ≥ 100 nM
CS(=O)(=O)N1CCC(Nc2ncc(C(F)(F)F)c(-n3cccn3)n2)CC1 [Example 19] | ≥ 100 nM | ≤ 10 nM | 10 to 100 nM | 10 to 100 nM
O=S(=O)(NC1(CO)CC1)c1ccc(Nc2ncc(C(F)(F)F)c(-n3cccn3)n2)cc1 [Example 135] | ≥ 100 nM | ≤ 10 nM | ≥ 100 nM | ≥ 100 nM

Compound | IC50 (CDK1/cyclinB1) | IC50 (CDK2/cyclinE1) | IC50 (CDK4/cyclinD3) | IC50 (CDK6/cyclinD3)
O=S(=O)(NCCO)c1ccc(Nc2ncc(Cl)c(-n3cccn3)n2)cc1 [Example 117] | 10 to 100 nM | ≤ 10 nM | ≥ 100 nM | ≥ 100 nM
CNS(=O)(=O)c1ccc(Nc2ncc(C(F)(F)F)c(-n3cc(C4CCOC4)cn3)n2)cc1 (single isomer, unassigned) [Example 90] | ≥ 100 nM | 10 to 100 nM | 10 to 100 nM | 10 to 100 nM
N#Cc1cnc(Nc2ccc(S(=O)(=O)NCCO)cc2)nc1-n1cccn1 [Example 119] | ≥ 100 nM | 10 to 100 nM | ≥ 100 nM | 10 to 100 nM
CNS(=O)(=O)c1ccc(Nc2ncc(C(F)(F)F)c(-n3cc(C4CC4(F)F)cn3)n2)cc1 (single isomer, unassigned) [Example 52, 4-[[4-[4-(2,2-difluorocyclopropyl)pyrazol-1-yl]-5-(trifluoromethyl)pyrimidin-2-yl]amino]-N-methyl-benzenesulfonamide] | ≥ 100 nM | 10 to 100 nM | ≥ 100 nM | 10 to 100 nM
O=S(=O)(c1ccc(Nc2ncc(C(F)(F)F)c(-n3cccn3)n2)cc1)N1CCNCC1 [Example 37] | ≥ 100 nM | ≤ 10 nM | 10 to 100 nM | 10 to 100 nM
CNS(=O)(=O)c1ccc(Nc2ncc(C(F)(F)F)c(-n3cccn3)n2)cc1 [Example 16, N-methyl-4-[[4-pyrazol-1-yl-5-(trifluoromethyl)pyrimidin-2-yl]amino]benzene sulfonamide] | ≥ 100 nM | ≤ 10 nM | ≥ 100 nM | ≥ 100 nM
CNS(=O)(=O)c1ccc(Nc2ncc(C(F)F)c(-n3cccn3)n2)cc1 [Example 20] | ≥ 100 nM | 10 to 100 nM | ≥ 100 nM | ≥ 100 nM
O=S(=O)(NCCOC(F)(F)F)c1ccc(Nc2ncc(C(F)(F)F)c(-n3cccn3)n2)cc1 [Example 128] | ≥ 100 nM | ≥ 100 nM | ≥ 100 nM | ≥ 100 nM
O=S(=O)(NCCO)c1ccc(Nc2ncc(C(F)(F)F)c(-n3cccn3)n2)cc1 [Example 36, 4-((4-(1H-pyrazol-1-yl)-5-(trifluoromethyl)pyrimidin-2-yl)amino)-N-(2-hydroxyethyl) benzene sulfonamide] | 10 to 100 nM | ≤ 10 nM | ≥ 100 nM | ≥ 100 nM
COCCNS(=O)(=O)c1ccc(Nc2ncc(C(F)(F)F)c(-n3cccn3)n2)cc1 [Example 127] | ≥ 100 nM | 10 to 100 nM | ≥ 100 nM | ≥ 100 nM
CNS(=O)(=O)c1ccc(Nc2ncc(C(F)(F)F)c(-n3cc(CCC(C)(C)O)cn3)n2)cc1 [Example 3] | 10 to 100 nM | 10 to 100 nM | 10 to 100 nM | ≥ 100 nM
CNS(=O)(=O)c1ccc(Nc2ncc(C(F)(F)F)c(-n3cc(C4CCN(C(C)=O)CC4)cn3)n2)cc1 [Example 14] | ≥ 100 nM | 10 to 100 nM | 10 to 100 nM | ≥ 100 nM
CNS(=O)(=O)c1ccc(Nc2ncc(C(F)(F)F)c(-n3cc(C4CN(C(C)=O)C4)cn3)n2)cc1 [Example 99] | ≥ 100 nM | 10 to 100 nM | ≥ 100 nM | ≥ 100 nM
CNS(=O)(=O)c1ccc(Nc2ncc(C(F)(F)F)c(-n3cc(C4=CCCC4)cn3)n2)cc1 [Example 12, 4-((4-(4-(cyclopent-1-en-1-yl)-1H-pyrazol-1-yl)-5-(trifluoromethyl)pyrimidin-2-yl)amino)-N-methylbenzenesulfonamide] | ≥ 100 nM | 10 to 100 nM | 10 to 100 nM | ≥ 100 nM
CNS(=O)(=O)c1ccc(Nc2ncc(C#N)c(-n3cccn3)n2)cc1 [Example 26] | ≥ 100 nM | 10 to 100 nM | ≥ 100 nM | ≥ 100 nM
CNS(=O)(=O)c1ccc(Nc2ncc(C(F)(F)F)c(-n3cc(C4CCNCC4)cn3)n2)cc1 [Example 13] | 10 to 100 nM | ≤ 10 nM | 10 to 100 nM | 10 to 100 nM
CNS(=O)(=O)c1ccc(Nc2ncc(C(F)(F)F)c(-n3ccc(CC(C)(C)O)n3)n2)cc1 [Example 4] | ≥ 100 nM | 10 to 100 nM | ≥ 100 nM | ≥ 100 nM
